From US20060014702A1, “Antimicrobial agent” (priority 2002, published 2006)
≈ marks a conversion by molar mass, not a printed value.

Assays:
Assay in all cases: Minimum Inhibitory Concentration (MIC) assay
Assay type in all cases: cell-based
Staphylococcus aureus = settings: LB broth, 37° C., 6 hours
Description: (§1) Inhibition of various bacteria by compounds 4 (n=9) and 6 (n=9) is described in Table 1. The biological data were determined by minimum Inhibitory Concentration (MIC) Assays. Each compound was added to 4 ml LB broth at a starting concentration of 200 μg/ml. Serial dilutions were then made, 1 in 2 at each step, ending with 0.2 μg/ml. 5 μL of a saturated culture was added to each serial dilution, and incubated at 37° C. with shaking for 6 hours. The MIC was then determined as the lowest concentration showing inhibited bacterial growth.

Enterococcus faecalis = settings: LB broth, 37° C., 6 hours
Description: as §1

Mycobacterium smegmatis = settings: Mycolicibacterium smegmatis, LB broth, 37° C., 6 hours
Description: as §1

Bacillus subtilis = settings: LB broth, 37° C., 6 hours
Description: as §1

Row | MIC (Staphylococcus aureus) [µg/mL] | MIC (Enterococcus faecalis) [µg/mL] | MIC (Mycobacterium smegmatis) [µg/mL] | MIC (Bacillus subtilis) [µg/mL] | SMILES
1 | < 0.2 | > 200 | < 0.2 | 25 (≈ 74.3 µM) | CCCCCCCCCCS[C@@H]1O[C@@H]([C@H](O)CO)[C@H](O)[C@H]1O [4 (n = 9), Decyl 1-thio-β-D-galactofuranoside]
2 | < 0.2 | 200 (≈ 408 µM) | < 0.2 | > 200 | CCCCCCCCCCC(CCCCCCCCCC)S[C@@H]1O[C@@H]([C@H](O)CO)[C@H](O)[C@H]1O [6 (n = 9), 11-heneicosanyl 1-thio-β-D-galactofuranoside]
